Measurements reported in US9718790B2, “Triazine derivative and pharmaceutical composition having an analgesic activity comprising the same” (SHIONOGI & CO., LTD., priority 2010, dated 2017).

Each molecule was assayed against human P2X3 receptor (Homo sapiens (Human), UniProt P56373) (assay: Evaluation of human P2X3 receptor inhibitory activity (Fluo-3 calcium fluorescence, FDSS 3000, ATP stimulation)). Conditions: C6BU-1 cells stably expressing human P2X3 receptor.
Assay type: cell-based
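Also: stimulus was 50 nM ATP with fluorescence followed for 3 min, and the response per well was peak post-ATP fluorescence divided by the reading at measurement start.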

human P2X3 receptor, sequence (P56373 whole entry): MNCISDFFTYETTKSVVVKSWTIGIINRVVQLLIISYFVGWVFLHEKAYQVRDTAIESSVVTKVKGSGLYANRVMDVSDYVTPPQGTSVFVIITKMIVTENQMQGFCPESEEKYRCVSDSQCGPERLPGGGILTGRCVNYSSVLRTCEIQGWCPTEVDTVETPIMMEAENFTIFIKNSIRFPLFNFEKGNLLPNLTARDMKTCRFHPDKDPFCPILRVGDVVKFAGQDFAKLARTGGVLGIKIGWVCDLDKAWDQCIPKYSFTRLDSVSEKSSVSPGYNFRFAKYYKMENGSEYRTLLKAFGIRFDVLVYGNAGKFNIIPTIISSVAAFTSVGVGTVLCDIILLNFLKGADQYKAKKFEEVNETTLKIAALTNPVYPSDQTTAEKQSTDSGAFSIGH

Row | Compound | IC50
1 | CCn1c(=O)[nH]/c(=N\c2ccc(Oc3cccc(CO)c3)cc2)n(Cc2ccc(Cl)cc2)c1=O [Compound I-2065] | 54 nM
2 | C[C@@H](Cn1c(=O)[nH]/c(=N\c2ccc(N3CCCCCC3)cc2)n(Cc2ccc(Cl)cc2)c1=O)C(=O)O [Compound I-1235] | 214 nM
3 | Cc1oc2ccc(/N=c3\[nH]c(=O)n(CC(CO)CO)c(=O)n3Cc3ccc(Cl)cc3)cc2c1C [Compound I-2072] | 8 nM
4 | O=c1ccccn1-c1ccc(/N=c2\[nH]c(=O)n(CCO)c(=O)n2Cc2ccc(Cl)cc2)cc1 [Compound I-2044] | 125 nM
5 | CNC(=O)CCn1c(=O)[nH]/c(=N\c2ccc3[nH]c(C)c(C)c3c2)n(Cc2ccc(Cl)cc2)c1=O [Compound I-1967] | 8 nM
6 | COC(=O)c1cccc(Oc2ccc(/N=c3\[nH]c(=O)[nH]c(=O)n3Cc3ccc(Cl)cc3)cc2)c1 [Compound I-1919] | 214 nM
7 | CC1Cc2cc(/N=c3\[nH]c(=O)n(C[C@H](C)C(=O)O)c(=O)n3Cc3ccc(Cl)cc3)ccc2O1 (some centres unmarked) [Compound I-1466] | 121 nM
8 | CC(C)Oc1ccc(/N=c2\[nH]c(OCC(=O)N(C)CCO)nc(=O)n2Cc2ccc(Cl)cc2)cc1F [Compound I-0586] | 611 nM
9 | COC(=O)[C@@H](C)Cn1c(=O)[nH]/c(=N\c2ccc(CCC3CC3)cc2)n(Cc2ccc(C)cc2)c1=O [Compound I-1202] | 93 nM
10 | Cc1ccc(Oc2ccc(/N=c3\[nH]c(=O)n(CC(N)=O)c(=O)n3Cc3ccc(Cl)cc3)cc2)cn1 [Compound I-1944] | 11 nM
11 | COC(=O)C(C)(C)Cn1c(=O)[nH]/c(=N\c2ccc(OCC3CC3)cc2)n(Cc2ccc(C)cc2)c1=O [Compound I-1242] | 15 nM
12 | CCn1c(=O)[nH]/c(=N\c2ccc(Oc3cc(C(N)=O)on3)cc2)n(Cc2ccc(Cl)cc2)c1=O [Compound I-2107] | 7 nM
13 | CC(C)Oc1ccc(/N=c2\[nH]c(=O)n(CC(=O)NCC3CCOCC3)c(=O)n2Cc2ccc(Cl)cc2)cc1Cl [Compound I-0664] | 6 nM
14 | CCOC(=O)CCCn1c(=O)[nH]/c(=N\c2ccc(Oc3ccnc(C)c3)cc2)n(Cc2ccc(C)cc2)c1=O [Compound I-1397] | 3 nM
15 | C[C@@H](Cn1c(=O)[nH]/c(=N\c2ccc3ncccc3c2)n(Cc2ccc(Cl)cc2)c1=O)C(=O)O [Compound I-1346] | 812 nM
16 | O=c1[nH]/c(=N\c2ccc(Oc3cncc(CO)c3)cc2)n(Cc2ccc(Cl)cc2)c(=O)n1CCO [Compound I-2079] | 38 nM
17 | CCn1c(=O)[nH]/c(=N\c2ccc(Oc3cc(C(=O)O)on3)cc2)n(Cc2ccc(Cl)cc2)c1=O [Compound I-1963] | 13 nM
18 | COC(=O)[C@@H](C)Cn1c(=O)[nH]/c(=N\c2ccc(OC(C)C)c(Cl)c2)n(Cc2ccccc2)c1=O [Compound I-0763] | 80 nM

Same assay, conditions: C6BU-1 cells stably expressing human P2X3 receptor, Fluo-3 fluorescence, FDSS 3000

Row | Compound | IC50
19 | Cc1ccc(Cn2c(=O)n(CCC(=O)O)c(=O)[nH]/c2=N\c2ccc(OCCC(C)C)cc2)cc1 [Compound I-1070] | 471 nM
20 | COC(=O)[C@@H](C)Cn1c(=O)[nH]/c(=N\c2ccc(O[C@H](C)C(F)(F)F)cc2)n(Cc2ccc(Cl)cc2)c1=O [Compound I-0942] | 22 nM
21 | COC(=O)[C@@H](C)Cn1c(=O)[nH]/c(=N\c2ccc(OC(F)(F)F)cc2)n(Cc2ccc(C)cc2)c1=O [Compound I-0999] | 174 nM
22 | O=C(O)CCn1c(=O)[nH]/c(=N\c2cccc(S(F)(F)(F)(F)F)c2)n(Cc2ccc(Cl)cc2)c1=O [Compound I-1651] | 54 nM
23 | Cc1ccc(Cn2c(=O)n(C[C@H](C)C(=O)O)c(=O)[nH]/c2=N\c2ccc(OC(C)C)c(OC(C)C)c2)cc1 [Compound I-1136] | 204 nM
24 | COc1ccc(Oc2ccc(/N=c3\[nH]c(=O)n(CC(N)=O)c(=O)n3Cc3ccc(Cl)cc3)cc2)cn1 [Compound I-1856] | 8 nM
25 | CCOC(=O)CCn1c(=O)[nH]/c(=N\c2ccc(OCC3CC3)cc2)n(Cc2ccc(C)cc2)c1=O [Compound I-1146] | 9 nM
26 | Cc1ccc(Cn2c(=O)n(C[C@@H](C)C(=O)O)c(=O)[nH]/c2=N\c2ccc(OC(C)C)cc2)cc1 [Compound I-1105] | 152 nM
27 | CCn1c(=O)[nH]/c(=N\c2ccc(Oc3ccc(C(N)=O)cc3)cc2)n(Cc2ccc(Cl)cc2)c1=O [Compound I-1870] | 4 nM
28 | CC[C@@H](C)Oc1ccc(/N=c2\[nH]c(=O)n([C@H](C)CC(=O)OC)c(=O)n2Cc2ccc(C)cc2)cc1C [Compound I-0938] | 35 nM
29 | COC(=O)CCn1c(=O)[nH]/c(=N\c2cn(C)nc2C(=O)NC(C)C)n(Cc2ccc(C)cc2)c1=O [Compound I-1804] | 162 nM
30 | CC(C)Oc1ccc(/N=c2\[nH]c(=O)n(CC(=O)NS(C)(=O)=O)c(=O)n2Cc2ccc(Cl)cc2)cc1Cl [Compound I-1876] | 35 nM
31 | CCC[C@H](C)Oc1ccc(/N=c2\[nH]c(=O)n(C[C@H](C)C(=O)O)c(=O)n2Cc2ccc(C)cc2)cc1 [Compound I-1060] | 29 nM
32 | C[C@@H](C(=O)O)[C@H](C)n1c(=O)[nH]/c(=N\c2ccc3nc(C(F)(F)F)[nH]c3c2)n(Cc2ccc(Cl)cc2)c1=O [Compound I-1794] | 380 nM

Same assay, conditions: human P2X3 receptor, Test Example 1

Row | Compound | IC50
33 | CCn1c(=O)[nH]/c(=N\c2ccc(Oc3ccc(C(N)=O)c(F)c3)cc2)n(Cc2ccc(Cl)cc2)c1=O [Compound I-2234] | 2 nM
34 | CCOC(=O)CCn1c(=O)[nH]/c(=N\c2ccc3nc(CC)sc3c2)n(Cc2ccc(Cl)cc2)c1=O [Compound I-1505] | 4 nM
35 | CCn1c(=O)[nH]/c(=N\c2ccc(Oc3cccc(/C=C/C(=O)OC)c3)cc2)n(Cc2ccc(C)cc2)c1=O [Compound I-2327] | 8 nM
36 | COC(=O)CCn1c(=O)[nH]/c(=N\c2ccc(Oc3cc(C#N)ccn3)cc2)n(Cc2ccc(C)cc2)c1=O [Compound I-2660] | 3 nM
37 | Cc1ccc(Cn2c(=O)n(CCC(=O)O)c(=O)[nH]/c2=N\c2c(Cl)ccc(C(F)(F)F)c2C)cc1 [Compound I-2090] | < 4 nM
38 | O=C(O)CCn1c(=O)[nH]/c(=N\c2ccc(Oc3ncns3)cc2)n(Cc2ccc(Cl)cc2)c1=O [Compound I-2698] | 25 nM
39 | CCn1c(=O)[nH]/c(=N\c2ccc(Oc3ccc(NC(C)=O)nc3)cc2)n(Cc2ccc(Cl)cc2)c1=O [Compound I-2241] | 1 nM
40 | CCn1c(=O)[nH]/c(=N\c2ccc(Oc3ccnc(C(=O)O)c3)c(F)c2)n(Cc2ccc(Cl)cc2)c1=O [Compound I-2462] | 7 nM
41 | CCn1c(=O)[nH]/c(=N\c2ccc(Oc3ccnc(NCCO)c3)cc2)n(Cc2ccc(Cl)cc2)c1=O [Compound I-2588] | 11 nM
42 | CCCOc1ccc(/N=c2\[nH]c(=O)n(C[C@H](C)C(=O)O)c(=O)n2Cc2ccc(C)cc2)cc1Cl [Compound I-0840] | 17 nM
43 | Cc1ccc(Cn2c(=O)n(C)c(=O)[nH]/c2=N\c2ccc(Oc3cc(C(=O)O)ccn3)cc2)cc1 [Compound I-2343] | 19 nM
44 | CC1(C)OC[C@H](Cn2c(=O)[nH]/c(=N\c3ccc(Oc4ccon4)cc3)n(Cc3ccc(Cl)cc3)c2=O)O1 [Compound I-2289] | < 4 nM
45 | CCn1c(=O)[nH]/c(=N\c2ccc(Nc3ccncc3)cc2)n(Cc2ccc(C)cc2)c1=O [Compound I-2569] | 162 nM
46 | CCOC(=O)C1(Cn2c(=O)[nH]/c(=N\c3ccc4oc(CC)c(C)c4c3)n(Cc3ccc(C)cc3)c2=O)CC1 [Compound I-1546] | 7 nM
47 | CCn1c(=O)nc(Nc2ccc(Oc3ccc(C(=O)O)nn3)cc2)n(Cc2ccc(F)cc2)c1=O [Compound I-2699] | 134 nM
